Series [1] has as its system γ-globin promoter-firefly luciferase. The series is described as follows: γ-globin promoter-firefly luciferase induction in CID-dependent dual luc β-YAC BMCs (HTS and dose-response reconfirmation). The format is cell-based, mouse. The settings on record: for responsiveness of dual luc β-YAC BMCs to known γ-globin inducers: data not shown; for fold induction of firefly luciferase by positive control: 2 mM, 24 hours, over DMSO treated controls, primary HTS plates. As to the method:
For HTS experiments, the dual luc β-YAC BMCs were seeded into 384-well plates (Greiner Bio-One, Monroe, NC) at a density of 10,000 cells/30 µl/well by Wellmate bulk dispenser (ThermoScientific Inc., Waltham, MA) in complete media containing the CID, CL-COB-II-293 (synthesized by the University of Kansas COBRE CCET Core C Synthesis Lab, commonly called AP20187). The CID-dependent dual luc β-YAC BMCs were responsive to known γ-globin inducers including valproic acid, sodium butyrate, valeric acid and hydroxyurea (data not shown). Sodium butyrate (2 mM) was selected as the positive control for screening, as a consistent 5–6 fold increase in firefly luciferase activity was obtained in four independent experiments with four different passage numbers. Since both the cell viability and luciferase induction was unaffected at DMSO concentrations below 0.5%, the compound libraries were screened at 10 µM concentration in 0.35% DMSO. Compounds were transferred acoustically using a Labcyte Echo 550 dispenser (Labcyte Inc., Sunnyvale, CA). Based on previous optimizations, 10,000 cells/well in IMDM containing CL-COB-II-293 (100 nM) were added to the wells of 384-well assay plates. The negative (n = 16, DMSO) and positive (n = 16, sodium butyrate, 2 mM) controls were added to the first two columns of each plate to assure uniformity across plates and screening batches. The cells were exposed to compounds for 24 hours at 37°C, 5% CO2 in a 95% humidified incubator. After 24 hours incubation, Steady Glo luciferase detection reagent (Promega, Madison, WI) was used for cell lysis and generation of a luminescent signal, proportional to γ-globin promoter driven firefly luciferase reporter expression. The luminescence intensities were read 30 minutes later on a Tecan Safire2 microplate reader (Tecan, Männedorf, Switzerland). The luminescence values were used for calculating fold-induction of luciferase over DMSO treated controls. The controls were used to calculate a Z′ factor value for each plate, a measure of screening assay quality.
The active compounds from the primary screen were cherry-picked from mother plates and retested for firefly luciferase induction in an eight concentration dose-response assay (two fold dilution starting at 30 µM). The fold-induction values from dose-response curves were used for preliminary scaffold analysis and clustering using the Tripos Selector program and analyzed using the Jarvis Patrick routine, using default parameters [The Tripos Associates (Cetara), St. Louis, MO]. From each preliminary cluster, the largest conserved substructure present in at least half of the cluster members was identified.
Some of the primary screen active compounds were repurchased and tested for activity in cell-based assays using the primary screening reporter cells in a ten concentration dose-response. Both firefly luciferase induction (γ-globin promoter activation using the One-Glo luciferase detection system; Promega, Madison, WI), and Renilla luciferase induction (β-globin induction the using Renilla-Glo Luciferase detection system; Promega, Madison, WI), were measured for specificity of compound activity. The cytotoxicity of the compounds was measured after 24 hours in the same cells using Cell-Titer Glo reagent (Promega, Madison, WI). The compounds were also tested in a biochemical screen for any inhibition to purified firefly luciferase enzyme (15 nM).

For series [2], the system named is γ-globin (HbF)-expressing F cells. The experiment in a line: FACS analysis of HbF (F cells) in CID-dependent wild-type β-YAC BMCs. To be noted: 48 hours; NaB 2 mM; #7 50 µM; #42 15 µM; #87 100 µM; #125 30 µM; #157 100 µM; #208 25 µM; untreated 0.7%. Type of series: cell-based, mouse. An excerpt:
(§1) Human erythroid progenitors were generated in vitro from adult CD34^+ stem cells (STEMCELL Technologies, Inc., Vancouver, Canada) using a 2-stage culture system that achieves terminal erythroid differentiation. Standard, but variant, methods for quantitative reverse transcription-PCR (qRT-PCR) and flow-activated cell sorting (FACS) were employed for the two cell types as detailed in File S1. ELISA was used to measure HbF in CID-dependent wild-type β-YAC BMCs as described in the supplement.
Flow-activated cell sorting (FACS). Detection of HbF in CID-dependent wild-type β-YAC BMCs was performed by flow cytometric analysis. Briefly, 3 x 10^6 cells were cultured for 48 hours with or without treatment. Cells were washed in PBS and fixed in 1 ml 4% fresh paraformaldehyde (Sigma Aldrich, Saint Louis, MO). The cells were centrifuged, the supernatant discarded, and the pellets were resuspended in 1 ml ice cold acetone:methanol (4:1) for 1 minute. Cells were washed twice in ice-cold PBS/0.1% BSA and resuspended in 100 μl PBS/0.1% BSA/0.01% Tween 20 (PBT). One μg sheep anti-human HbF FITC-conjugated antibody (A80-136F, Bethyl Laboratories, Montgomery, TX) in 100 μl PBT was added to the cell suspension and incubated for 40 minutes at room temperature. […] Cells were analyzed using a BD LSRII Flow Cytometer (BD Biosciences, San Jose, CA) with a 530/30 nm (FITC/GFP) emission filter . […]
(In general: A flow cytometer gives signals particle by particle.)

Series [3] relates to γ-globin to β-globin (γ/β) ratio. The series is described as follows: qRT-PCR γ-globin/β-globin mRNA ratio in human primary erythroid progenitors. Type of series: cell-based. To be noted: added day 8 for 48 hours; NaB 2 mM; #7 50 µM; #42 15 µM; #87 100 µM; #208 25 µM (Figure 6 legend).
Description: as §1
Human primary erythroid cell culture. Human erythroid progenitors were generated in vitro from adult CD34^+ stem cells (STEMCELL Technologies, Inc., Vancouver, Canada) using a 2-stage culture system that achieves terminal erythroid differentiation. […] Cell viability was monitored by trypan blue (0.4%) exclusion. […]
Quantitative reverse transcription-PCR (qRT-PCR). The mRNA levels of γ-globin, β-globin, and glyceraldehyde-3-phosphate dehydrogenase (GAPDH) were measured as previously published, [10]. […] The γ-globin, β-globin, and GAPDH mRNA levels were quantitated by Sybergreen qPCR using an iCycler iQ instrument (BioRad, Hercules, CA); standard curves were generated using a Topo7-based plasmid carrying the γ-globin, β-globin, or GAPDH cDNAs (Topo7-γ-globin, Topo7-β-globin, or Topo7-GAPDH, respectively).

The test system of series [4] is human γ-globin gene expression. The series is described as follows: qRT-PCR of γ-globin mRNA in CID-dependent wild-type β-YAC BMCs. Type of series: cell-based, mouse. To be noted: 48 hours; NaB 2 mM; #7 50 µM; #42 15 µM; #87 100 µM; #125 30 µM; #157 100 µM; #208 25 µM.
Description: as §1
Quantitative reverse transcription-PCR (qRT-PCR). In each experiment, treated and non-treated samples were analyzed in duplicate, 48 hours post-treatment, using SYBR Green dye in a CFX96 instrument (Bio-Rad, Hercules, CA). Expression of γ- and β-globin was calculated using relative quantification, as previously described, [7], using samples from β-YAC transgenic mice as controls. PCR primer sequences utilized for expression studies were: Hu-γ1, 5’-[…]-3’; Hu-γ2, 5’-[…]-3’; β-globin FWD, 5’-[…]-3’; β-globin REV, 5’-[…]-3’; Mo-Gapdh FWD, 5’-[…]-3’; Mo-Gapdh REV, 5’-[…]-3’; Mo-α-globin FWD, 5’-[…]-3’; Mo-α-globin REV, 5’-[…]-3’. Murine Gapdh and α-globin gene expression were used as internal controls for the human β-like globin gene expression. Mean and standard error of the mean were calculated. The Student’s t-test was used to determine statistical significance at P < 0.05 and P < 0.01.
On the technique in general: Real-time PCR tracks product formation cycle by cycle.

Series [5] relates to HbF-positive cells. The series is described as follows: FACS analysis of HbF-positive cells in human primary erythroid progenitors. Type of series: cell-based. To be noted: 48 hours.
Description: as §1
Human primary erythroid cell culture. Human erythroid progenitors were generated in vitro from adult CD34^+ stem cells (STEMCELL Technologies, Inc., Vancouver, Canada) using a 2-stage culture system that achieves terminal erythroid differentiation. Briefly, CD34^+ stem cells (500,000) were grown in First medium consisting of IMDM containing human AB serum, Interleukin-3 (IL-3,10 ng/ml), stem cell factor (SCF, 10 ng/ml) and erythropoietin (EPO, 2 IU/ml). On day 7 the erythroblasts were placed in Second medium consisting of 2 IU/mL erythropoietin for the duration of culture. […] Cell viability was monitored by trypan blue (0.4%) exclusion. […]
Flow-activated cell sorting (FACS). […] The labeled cells were analyzed using a Becton-Dickson LSR-II flow cytometer (BD Biosciences, San Jose, CA). […]

The results in this text go back to publication PMC4165891, “A Cell-Based High-Throughput Screen for Novel Chemical Inducers of Fetal Hemoglobin for Treatment of Hemoglobinopathies” (PLoS ONE, 2014).

For `CCCC(CCC)C(=O)O` [valproic acid], the “responsiveness of dual luc β-YAC BMCs to known γ-globin inducers” value in series [1] is listed as “responsive”.
Still for that read-out and setting: the same measure for `NC(=O)NO` [hydroxyurea]: “responsive”.
Same read-out and setting: in the case of `CCCCC(=O)O` [valeric acid] it was “responsive”.
As for `CCCC(=O)[O-].[Na+]` [Sodium butyrate], the “% F cells (FACS, gate P3)” value in series [2] stood at 15.9%. In series [1], the “fold induction of firefly luciferase by positive control” value was 5–6 fold and the “responsiveness of dual luc β-YAC BMCs to known γ-globin inducers” value is listed as “responsive”. Also, the “fold induction of firefly luciferase by positive control” value in series [1] (listed as sodium butyrate) is on record as 6.3±0.7 fold. In addition, the “γ-globin to β-globin (γ/β) mRNA ratio fold increase compared to DMSO” value in series [3] is 1.8 fold. In series [4], the “γ-globin expression fold induction (qPCR)” value came to 9.9 fold. Further, the “fold increase in % HbF-positive cells” value in series [5] came out at 7 fold.
